Test results taken from patent US20060111436A1, “Compositions and treatments for modulating kinase and/or HMG-CoA reductase” (priority 2004, published 2006).

Experiments:
Type in all cases: biochemical
[1] = target: recombinant human p38β MAP kinase (Homo sapiens, UniProt Q15759); assay: Cell-free p38β MAP kinase modulation assay (phosphorylation of myelin basic protein); details: for AC50: concentration to activate phosphorylation of myelin basic protein by 50%, ANO = activation not observed at any concentration tested; for p38β Max % Act: maximum observed increase in p38 MAP kinase activity in presence of compound; for effect on p38β MAP kinase activity, in words: text summary of Table I; for p38β concentration at which maximum increase in activity is observed: value in parentheses in Max % Act
Sequence of recombinant human p38β MAP kinase (Q15759 whole entry): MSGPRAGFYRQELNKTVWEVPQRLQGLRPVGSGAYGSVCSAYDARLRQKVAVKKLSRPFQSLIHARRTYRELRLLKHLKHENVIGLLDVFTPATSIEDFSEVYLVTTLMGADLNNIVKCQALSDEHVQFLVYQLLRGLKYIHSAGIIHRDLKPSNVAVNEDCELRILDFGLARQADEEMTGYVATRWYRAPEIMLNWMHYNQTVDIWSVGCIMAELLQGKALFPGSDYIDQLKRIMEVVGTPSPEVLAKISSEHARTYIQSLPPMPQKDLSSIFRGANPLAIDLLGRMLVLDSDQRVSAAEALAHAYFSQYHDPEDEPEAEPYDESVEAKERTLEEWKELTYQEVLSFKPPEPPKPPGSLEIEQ

[2] = target: T1, recombinant human p38γ MAP kinase (Homo sapiens, UniProt P53778); assay: Cell-free p38γ MAP kinase modulation assay (phosphorylation of myelin basic protein); details: for p38γ Max % Act: maximum observed increase in p38 MAP kinase activity in presence of compound; for effect on p38γ MAP kinase activity, in words: text summary of Table I; for p38γ concentration at which maximum increase in activity is observed: value in parentheses under Max % Act
T1 sequence (P53778 1-367): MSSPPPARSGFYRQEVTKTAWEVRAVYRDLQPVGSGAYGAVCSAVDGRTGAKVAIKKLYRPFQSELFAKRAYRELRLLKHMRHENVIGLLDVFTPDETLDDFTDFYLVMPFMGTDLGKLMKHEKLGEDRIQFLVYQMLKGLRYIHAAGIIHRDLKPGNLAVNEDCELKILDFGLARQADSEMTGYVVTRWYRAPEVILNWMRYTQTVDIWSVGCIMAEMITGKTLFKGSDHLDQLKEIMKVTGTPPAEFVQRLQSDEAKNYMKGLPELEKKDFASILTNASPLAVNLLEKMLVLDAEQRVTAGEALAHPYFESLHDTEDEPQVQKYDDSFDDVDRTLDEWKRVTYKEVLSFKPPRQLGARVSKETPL

[3] = target: T2, recombinant human p38δ MAP kinase (Homo sapiens, UniProt O15264); assay: Cell-free p38δ MAP kinase modulation assay (phosphorylation of myelin basic protein); details: for AC50: concentration to activate phosphorylation of myelin basic protein by 50%, ANO = activation not observed at any concentration tested; for p38δ Max % Act: maximum observed increase in p38 MAP kinase activity in presence of compound; for effect on p38δ MAP kinase activity, in words: text summary of Table I; for p38δ concentration at which maximum increase in activity is observed: value in parentheses under Max % Act
T2 sequence (O15264 1-365): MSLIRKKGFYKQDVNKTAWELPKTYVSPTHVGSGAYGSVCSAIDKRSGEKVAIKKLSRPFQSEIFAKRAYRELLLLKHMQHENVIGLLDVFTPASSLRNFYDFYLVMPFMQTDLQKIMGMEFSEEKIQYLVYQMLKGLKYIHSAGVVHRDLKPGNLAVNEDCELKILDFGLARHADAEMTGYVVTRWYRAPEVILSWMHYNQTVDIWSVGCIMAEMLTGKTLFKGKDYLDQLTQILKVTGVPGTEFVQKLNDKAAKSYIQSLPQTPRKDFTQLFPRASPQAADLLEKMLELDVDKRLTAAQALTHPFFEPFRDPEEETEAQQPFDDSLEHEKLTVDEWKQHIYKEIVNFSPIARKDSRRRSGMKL

[4] = target: T3, human recombinant p38α protein kinase (Homo sapiens, UniProt Q16539); assay: Cell-free p38α MAP kinase modulation assay (phosphorylation of myelin basic protein); details: for AC50 / p38α AC50: concentration to activate phosphorylation of myelin basic protein by 50%, ANO = activation not observed at any concentration tested; for p38α IC50 / IC50: concentration to inhibit phosphorylation of myelin basic protein by 50%, INO = inhibition not observed at any concentration tested; for p38α Max % Act: maximum observed increase in p38 MAP kinase activity in presence of compound; for effect on p38α MAP kinase activity, in words: text summary of Table I; for p38α concentration at which maximum increase in activity is observed: value in parentheses in Max % Act
T3 construct: purchased UBI 14-251; host or cells: E. coli
T3 sequence (Q16539 whole entry): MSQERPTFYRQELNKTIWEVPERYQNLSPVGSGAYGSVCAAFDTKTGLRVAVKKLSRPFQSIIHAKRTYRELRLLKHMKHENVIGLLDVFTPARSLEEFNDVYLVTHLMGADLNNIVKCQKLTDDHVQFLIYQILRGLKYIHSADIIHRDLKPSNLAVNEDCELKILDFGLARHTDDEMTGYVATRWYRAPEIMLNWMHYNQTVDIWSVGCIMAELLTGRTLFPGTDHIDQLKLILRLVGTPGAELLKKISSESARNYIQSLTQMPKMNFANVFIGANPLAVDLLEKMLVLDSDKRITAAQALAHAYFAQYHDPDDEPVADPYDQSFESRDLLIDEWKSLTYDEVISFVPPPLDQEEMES
Protocol: In vitro cell-free p38α MAP kinase modulation assays were conducted by the method as described in Clerk et al., supra, (1998). Briefly, human recombinant p38α protein kinase expressed in E. Coli (UBI #14-251) was used. Myelin basic protein (MBP, UBI #13-110) was employed as substrate, and microtiter plate wells were coated with MBP (0.01 mg/ml) overnight at 4° C. Candidate compound and/or vehicle was preincubated with 0.075 μg/mL enzyme in modified HEPES buffer pH 7.4 at 25° C. for 15 minutes. The reaction was initiated by addition of 100 μM ATP and allowed to proceed for another 60 minutes. The reaction was terminated by aspirating the solution. Phosphorylated MBP was detected by incubation with a mouse monoclonal IgG2a anti-phosphoMBP antibody. Bound anti-phosphoMBP antibody was quantitated by incubation with a HRP conjugated goat anti-mouse IgG.

[5] = concentration to inhibit phosphorylation of myelin basic protein by 50%, INO = inhibition not observed at any concentration tested
[6] = concentration to activate phosphorylation of myelin basic protein by 50%, ANO = activation not observed at any concentration tested

Structure (SMILES) | p38β Max % Act [1] [%] | p38β concentration at which maximum increase in activity is observed [1] [µM] | AC50 [2, 6] [µM] | p38γ IC50 [2, 5] | p38γ Max % Act [2] [%] | effect on p38γ MAP kinase activity, in words [2] | p38γ concentration at which maximum increase in activity is observed [2] | AC50 [3] [µM] | p38δ Max % Act [3] [%] | effect on p38δ MAP kinase activity, in words [3] | p38δ concentration at which maximum increase in activity is observed [3] | p38α AC50 [4] | IC50 [4] [µM] | other results
COCc1c(C(C)C)nc(C(C)C)c(/C=C/[C@@H]2C[C@@H](O)CC(=O)O2)c1-c1ccc(F)cc1 [Cerivastatin lactone, cerivastatin lactone] | 143 | 10 | ~5 | INO | 115 | can activate | (100 μM) | ~8 | 158 | can activate | (100 μM) | – | – | AC50 [1]: ~5 µM; p38β IC50 [1, 5]: INO; effect on p38β MAP kinase activity, in words [1]: can activate; p38δ IC50 [3, 5]: INO; AC50 [4]: ~10 µM; p38α IC50 [4]: INO; p38α Max % Act [4]: 76%; effect on p38α MAP kinase activity, in words [4]: can activate; p38α concentration at which maximum increase in activity is observed [4]: 100 µM
O=C([O-])C[C@H](O)C[C@H](O)/C=C/c1c(C2CC2)nc2ccccc2c1-c1ccc(F)cc1.O=C([O-])C[C@H](O)C[C@H](O)/C=C/c1c(C2CC2)nc2ccccc2c1-c1ccc(F)cc1.[Ca+2] [Pitavastatin calcium, reference compound] | – | – | – | INO | – | – | – | – | – | – | – | ANO | 101 | p38γ AC50 [2, 6]: ANO
CC(C)c1c(C(=O)Nc2ccccc2)c(-c2ccccc2)c(-c2ccc(F)cc2)n1CC[C@@H](O)C[C@@H](O)CC(=O)[O-].CC(C)c1c(C(=O)Nc2ccccc2)c(-c2ccccc2)c(-c2ccc(F)cc2)n1CC[C@@H](O)C[C@@H](O)CC(=O)[O-].[Ca+2] [Atorvastatin calcium, atorvastatin calcium, reference compound] | – | – | – | – | – | – | – | – | – | – | – | ANO^d | – | –
CC(C)n1c(/C=C/C(O)CC(O)CC(=O)O)c(-c2ccc(F)cc2)c2ccccc21 (centres unmarked) [Fluvastatin sodium, fluvastatin sodium, reference compound] | – | – | – | – | – | – | – | – | – | – | – | ANO | – | –
CCC(C)(C)C(=O)O[C@H]1C[C@@H](C)C=C2C=C[C@H](C)[C@H](CC[C@@H]3C[C@@H](O)CC(=O)O3)[C@H]21 [Simvastatin lactone, simvastatin lactone] | 185 | 100 | 3 to 10 | INO | 127 | can activate | (100 μM) | ~2 | 611 | can activate | (100 μM) | – | – | AC50 [1]: ~15 µM; p38β IC50 [1, 5]: INO; effect on p38β MAP kinase activity, in words [1]: can activate; p38δ IC50 [3, 5]: INO; AC50 [4]: ~20 µM; p38α IC50 [4]: INO^e; p38α Max % Act [4]: 207%; effect on p38α MAP kinase activity, in words [4]: can activate; p38α concentration at which maximum increase in activity is observed [4]: 100 µM
CC(C)c1c(C(=O)Nc2ccccc2)c(-c2ccccc2)c(-c2ccc(F)cc2)n1CC[C@@H]1C[C@@H](O)CC(=O)O1 [Atorvastatin lactone, atorvastatin lactone] | 19 | 10 | ~10 | – | 62 | showed both inhibitory and activation activities | (10 μM) | 30 to 100 | 112 | showed both inhibitory and activation activities | (30 μM) | ANO | 31 | IC50 [1, 5]: 94 µM; IC50 [2, 5]: ~50 µM; IC50 [3, 5]: 83 µM; p38δ Max % Act ([3]; listed as atorvastatin lacton): about 112%
CC(C)c1nc(N(C)S(C)(=O)=O)nc(-c2ccc(F)cc2)c1/C=C/[C@@H](O)C[C@@H](O)CC(=O)O [Rosuvastatin sodium, reference compound] | – | – | – | – | – | – | – | – | – | – | – | ANO | – | –
COCc1c(C(C)C)nc(C(C)C)c(C=CC(O)CC(O)CC(=O)[O-])c1-c1ccc(F)cc1.COCc1c(C(C)C)nc(C(C)C)c(C=CC(O)CC(O)CC(=O)[O-])c1-c1ccc(F)cc1.[Ca+2] (centres unmarked) [Cerivastatin calcium, reference compound] | – | – | – | – | – | – | – | – | – | – | – | ANO | > 30 | –
